According to PubChem BioAssay AID1863 (Southern Research Specialized Biocontainment Screening …, 2009):
pIC50: −log10 of the molar value. Values joined by “and” are separate entries in the source; they are usually repeats but may differ in a detail not shown here. Equal entries are not always repeated.

tested on: S. Typhimurium PhoP-regulated promoter GFP reporter, 4 h; assay: inhibitors of PhoP regulon expression, primary screen, Salmonella Typhimurium, GFP reporter (AID 1863)

SMILES	pIC50
COC(=O)C1C(O)C(C)C(O)C(C)(O)/C=C\C=C(/C)C(=O)Nc2c(C)c(OC(C)=O)c3c(c2O)C(=O)C(C)=C2OCOC(=C23)/C(C)=C/C(C)(O)C(O)C(C)C1O (stereo not drawn)	4.76
CC(C)(C)/C(O)=C/c1nc2cc(Cl)ccc2oc1=O	4.00
CCCCCc1ccc(OCCOCCn2c[n+](C)c3ccccc32)c(CCCCC)c1	4.36
COc1ccc(/C=N/Nc2cc(C)nc3c(C)cccc23)cc1	4.09
Oc1c(Cl)cc(Cl)c2cccnc12	4.55
Oc1cc(Cl)ccc1Oc1ccc(Cl)cc1Cl	6.09
CC(=O)Oc1cc2cccc(OC(C)=O)c(=O)c2c(OC(C)=O)c1OC(C)=O	4.33
CCCCCCCCCn1c2c(c(=N)c3c1CCC3)CCCC2	4.51
CCCCCCCNC(=O)C1(CC2CC(c3ccc(Cl)cc3)=NO2)CCNCC1 (stereo not drawn)	4.26
Oc1cccc(Nc2c3ccccc3nc3ccccc23)c1	3.83
CC(C(=O)NC1CCS(=O)(=O)C1)N1C(=O)/C(=C/c2ccc(Cl)cc2)SC1=S (stereo not drawn)	4.40
NC(=NCCCCCCN=C(N)/N=C(\N)Nc1ccc(Cl)cc1)/N=C(\N)Nc1ccc(Cl)cc1	5.08 and 4.99 and 4.83
c1cnc2c(c1)ccc1cccnc12	4.40
NC1=NC[C@@H](Cc2ccc(O)cc2)N1CCCCC1CCCCC1	4.51
Oc1cccc2ccc(Nc3ccccn3)nc12	4.72
C[C@H]1COc2c(N3CCN(C)CC3)c(F)cc3c(=O)c(C(=O)O)cn1c23	> 6.64
COc1ccc(Nc2cc(C)c3c(O)cccc3n2)cc1	4.16
OCCNCc1c(OCc2ccc(Cl)cc2)ccc2ccccc12	3.90
O=C(c1ccccc1)c1c2c(cc3sc4ccccc4[n+]13)-c1cccc3cccc-2c13	4.10
O=C(CSc1nc2ccccc2s1)N/N=C/c1cc([N+](=O)[O-])ccc1O	3.96
Cc1ccccc1NC(=O)CCC(=O)N/N=C/c1cc([N+](=O)[O-])ccc1O	4.02
CNC[C@H](Cc1ccccc1)NC[C@@H](Cc1cccc2ccccc12)NCCc1ccc(C)cc1	4.57
Cc1ccc(Nc2nc(N)c3ccccc3n2)cc1Cl	4.17
CO[C@H]1/C=C/O[C@@]2(C)Oc3c(C)c(O)c4c(O)c(c(C=NN5CCN(C)CC5)c(O)c4c3C2=O)NC(=O)/C(C)=C\C=C\[C@H](C)[C@H](O)[C@@H](C)[C@@H](O)[C@@H](C)[C@H](OC(C)=O)[C@@H]1C	5.13
CN1CCN(c2c(F)cc3c(=O)c(C(=O)O)cn4c3c2OCN4C)CC1	6.59
O=C1NN(c2ccccc2)C(=O)/C1=C\c1coc2ccc(O)cc2c1=O	3.88

SMILES	pIC50
COc1c(N2CCN(C(=S)Nc3ccc(F)cc3)C(C)C2)c(F)cc2c(=O)c(C(=O)O)cn(C3CC3)c12 (stereo not drawn)	5.13
CCCCOc1ccc(Cc2cnc(N)nc2N)cc1	4.04
Nc1nc(F)nc2c1ncn2[C@@H]1O[C@H](CO)[C@@H](O)[C@H]1O	4.56
CCC(C)NC(=O)c1cn(CC)c2cc(N3CCN(C)CC3)c(F)cc2c1=O (stereo not drawn)	4.43
CCn1cc(C(=O)O)c(=O)c2cc(F)c(N3CCN(C(=S)NC(=O)c4cccc(C)c4)CC3)cc21	4.83
CCCCCc1ccc(OCCC[n+]2ccccc2)c(CCCCC)c1	4.08
OC(c1cc(C(F)(F)F)nc2c(Cl)cc(Cl)cc12)C1CCCCN1 (stereo not drawn)	3.99
O=C1c2ccccc2C(=O)c2[nH]c(=O)[nH]c21	4.84
O=C(C[n+]1cccc(CNC(=O)c2ccc(OC(F)F)cc2)c1)Nc1ccc(SC(F)F)cc1	4.03
CCCCCCCCCCOC(=O)Cn1c(COc2ccc(C)cc2)[n+](C)c2ccccc21	4.73
O=C(NC(=S)NNC(=O)c1ccccc1O)c1ccco1	4.15
O=C1c2ccccc2NC(c2ccc(-c3ccc(Br)cc3)o2)N1O (stereo not drawn)	3.98
Oc1ccc(Cl)cc1Cc1cc(Cl)ccc1O	4.44
Cc1cc(C)c2ccc(N)nc2c1O	4.16
COc1c(N2CCNC(C)C2)c(F)cc2c(=O)c(C(=O)O)cn(C3CC3)c12 (stereo not drawn)	6.24
O=C(N/N=C/c1cc([N+](=O)[O-])ccc1O)C1CC1	4.18
CN(C)c1ccc(/C=C/c2ccc3ccccc3[n+]2C)cc1	4.73
C#CCOCCOCCOCCNc1nc(N2CCN(C(=O)CCCCCCCCCCNC(=O)[C@H](CCCCN)n3cc(C[C@@H](C)CC)nn3)CC2)nc(N2CCN(C(=O)CCCCCCCCCCNC(=O)[C@H](CCCN=C(N)N)n3cc(C[C@@H](C)CC)nn3)CC2)n1	4.09
CC(C)COc1ccc(Cc2cnc(N)nc2N)cc1	4.01
CC(C)Oc1ccc(Cc2cnc(N)nc2N)cc1	4.04
CCn1cc(C(=O)NCCN(C)C)c(=O)c2cc(F)c(N3CCN(C)CC3)cc21	4.28
O=C(N/N=C\C=C\c1ccc([N+](=O)[O-])o1)c1cccs1	4.63
CCCCCCCCn1c2c(c(=N)c3c1CCC3)CCCC2	4.17
CC1CCc2c(N3CCC(O)CC3)c(F)cc3c(=O)c(C(=O)O)cn1c23 (stereo not drawn)	5.20
CCC(C)(C)c1ccc(OCCCC[n+]2ccc(C)cc2)c(C(C)(C)CC)c1	4.17
O=[N+]([O-])c1ccc(-c2ccn[nH]2)o1	4.42

SMILES	pIC50
CCCCCCCCCCOC(=O)Cn1c(COc2ccccc2)[n+](C)c2ccccc21	4.75
CCCCCOc1ccc(Br)cc1CSC(=N)N	4.24
CCCCCCCCCCCCCCCC[N+](C)(C)CCN(Cc1ccc(OC)cc1)c1ncccn1	4.52
Cc1ccc(Nc2cc(C)c3c(O)cccc3n2)cc1C	4.12
COC(=O)C1C(O)C(C)C(O)C(C)/C=C\C=C(/C)C(=O)Nc2c(C)c(OC(C)=O)c3c(c2O)C(=O)C(C)=C2OCOC(=C23)/C(C)=C/C(C)(O)C(O)C(C)C1O (stereo not drawn)	4.83
COc1ccc(OCc2n(CC(=O)OC3CC(C)CCC3C(C)C)c3ccccc3[n+]2C)cc1 (stereo not drawn)	4.13
O=C(Oc1c(Cl)cc(Cl)c2cccnc12)c1ccco1	4.33
c1ccc(-c2cccc(-c3ccccn3)n2)nc1	4.37
Nc1cccc2nc3ccccc3cc12	4.24
COc1ccccc1CNCC(O)Cn1c2ccccc2c2ccccc21 (stereo not drawn)	3.98
Cc1ccc(C(=O)O)cc1N=Cc1cc(Br)cc(Br)c1O	4.03
CNC[C@H](CC1CCCCC1)NC[C@H](Cc1ccccc1)NCCC12CC3CC(CC(C3)C1)C2	4.74
CC(C(=O)NC1C=CS(=O)(=O)C1)N1C(=O)/C(=C/c2ccc(Cl)cc2)SC1=S (stereo not drawn)	4.14
O=C(N/N=C/c1cc(O)ccc1Br)c1cccnc1	4.21
C/C(=N\NC(=O)c1cc2ccccc2cc1O)c1ccccn1	4.42
O=[N+]([O-])c1cc(Cl)c(O)c2ncccc12	5.21
Fc1ccc(CCNCc2ccc(Cl)c(Cl)c2)cc1	4.07
O=C(N/N=C/c1cc2c3c(c1O)CCCN3CCC2)c1ccccc1O	3.86
CCCCCCCSc1cc(OC)c(CCN(C)C)cc1OC	4.17
Cc1ccccc1OCc1n(CC(=O)OC2CC(C)CCC2C(C)C)c2ccccc2[n+]1C (stereo not drawn)	4.15
Clc1ccc(C[n+]2cc(-c3ccc(Cl)cc3)n3c2CCC3)cc1	3.90
C[C@H]1c2cccc(O)c2C(O)=C2C(=O)[C@]3(O)C(O)=C(C(N)=O)C(=O)[C@@H](N(C)C)C3[C@@H](O)C21 (stereo partly drawn)	5.28
O=C1NC(=S)S/C1=C\C=C\c1ccc([N+](=O)[O-])o1	4.65
C[C@H]1O[C@@H](n2cc(F)c(=O)[nH]c2=O)[C@H](O)[C@@H]1O	4.64
CCOC(=O)N1CCN(C(=O)c2cn(CC)c3cc(N4CCN(C)CC4)c(F)cc3c2=O)CC1	5.31
CCCCCCCCCCCCCCCCn1cc[n+](CC(C)=O)c1	4.50
